Several values for one entry are separate records, joined by “and”; a condition that tells them apart may be missing. Identical values can stand only once.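 Growth conditions: 96-well plates. Treatment: test compound, 48 hours, 5 concentrations. Analysis: linear interpolation between bracketing concentrations; unreached endpoints set to highest concentration. Abbreviation: GI50, concentration required for 50% inhibition of growth. At the TGI there is no net growth.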
How the values were obtained:
Test in all cases: NCI anticancer screen, dose series, 48 h
BT-549 breast = tested on: BT-549 breast
HCT-15 colon = tested on: HCT-15 colon
MALME-3M melanoma = tested on: MALME-3M melanoma
OVCAR-5 ovarian = tested on: OVCAR-5 ovarian
RXF 393 renal = tested on: RXF 393 renal
SK-OV-3 ovarian = tested on: SK-OV-3 ovarian
SN12C renal = tested on: SN12C renal
SW-620 colon = tested on: SW-620 colon
UACC-257 melanoma = tested on: UACC-257 melanoma
CCRF-CEM leukemia = tested on: CCRF-CEM leukemia
HL-60(TB) leukemia = tested on: HL-60(TB) leukemia

Compound	TGI (BT-549 breast)	TGI (HCT-15 colon)	TGI (MALME-3M melanoma)	TGI (OVCAR-5 ovarian)	TGI (RXF 393 renal)	TGI (SK-OV-3 ovarian)	TGI (SN12C renal)	TGI (SW-620 colon)	TGI (UACC-257 melanoma)	TGI (CCRF-CEM leukemia)	TGI (HL-60(TB) leukemia)	GI50 (CCRF-CEM leukemia)	GI50 (HCT-15 colon)	GI50 (HL-60(TB) leukemia)	GI50 (MALME-3M melanoma)	GI50 (OVCAR-5 ovarian)	GI50 (RXF 393 renal)	GI50 (SK-OV-3 ovarian)	GI50 (SN12C renal)	GI50 (SW-620 colon)
O=C(O)Cc1ccc2nc(COC(=O)c3ccccc3)sc2c1	> 100 µM	> 100 µM	> 100 µM	> 100 µM	> 100 µM	> 100 µM	> 100 µM	> 100 µM	> 100 µM	–	–	–	–	–	–	–	–	–	–	–
O=C(OCc1ccccc1)OOC(=O)OCc1ccccc1	–	> 100 µM	> 100 µM	> 100 µM	> 100 µM	> 100 µM	> 100 µM	> 100 µM	> 100 µM	> 100 µM	> 100 µM	–	–	–	–	–	–	–	–	–
C[C@@H]1C[C@H](O)[C@]2(O)O[C@@H]3C[C@@]4(C=O)[C@@H](CC=C5[C@@H]4CC[C@]4(C)[C@@H](C6=CC(=O)OC6)CC[C@]54O)C[C@H]3O[C@@H]2O1	0.0508 µM	0.194 µM	0.0532 µM	0.492 µM	–	1.86 µM	0.131 µM	1.87 µM	0.372 µM	0.0161 µM	0.062 µM	–	–	–	–	–	–	–	–	–
COc1ccc2c(c1)C(=O)c1ccccc1C2	> 100 µM	> 100 µM	–	> 100 µM	28.4 µM	> 100 µM	> 100 µM	> 100 µM	> 100 µM	> 100 µM	> 100 µM	–	–	–	–	–	–	–	–	–
CC(C)c1c(P(=O)(c2ccccc2)c2ccccc2)n(C)c2ccccc12	> 100 µM	> 100 µM	> 100 µM	> 100 µM	–	–	> 100 µM	> 100 µM	> 100 µM	> 100 µM	96.9 µM	–	–	–	–	–	–	–	–	–
CCn1c(=O)c2c3cc(O)ccc3oc2c2ccc(O)cc21	76.7 µM	> 100 µM	> 100 µM	–	> 100 µM	> 100 µM	> 100 µM	> 100 µM	> 100 µM	> 100 µM	–	–	–	–	–	–	–	–	–	–
N#Cc1c(OCCF)c2ccccc2n2c1nc1ccccc12	–	> 100 µM	–	> 100 µM	> 100 µM	> 100 µM	–	> 100 µM	> 100 µM	> 100 µM	> 100 µM	–	–	–	–	–	–	–	–	–
O=C(O[C@H](/C=C/c1ccccc1)P1(=O)N(Cc2ccccc2)[C@@H]2CCCC[C@H]2N1Cc1ccccc1)c1ccccc1	> 100 µM	11.1 µM	12 µM	> 100 µM	–	> 100 µM	9.68 µM	> 100 µM	> 100 µM	> 100 µM	> 100 µM	–	–	–	–	–	–	–	–	–
CN(O)C(=O)Cc1ccc(OCc2cccc(Cl)c2)cc1	> 100 µM	> 100 µM	–	> 100 µM	> 100 µM	> 100 µM	> 100 µM	> 100 µM	> 100 µM	> 100 µM	> 100 µM	–	–	–	–	–	–	–	–	–
CCN(CCCN(CC)C(=O)N[C@@H](Cc1ccccc1)C(=O)NC)C(=O)N[C@@H](Cc1ccccc1)C(=O)NC	> 100 µM	> 100 µM	> 100 µM	> 100 µM	> 100 µM	> 100 µM	–	> 100 µM	> 100 µM	–	–	–	–	–	–	–	–	–	–	–
CC1CC(C#N)=C2NCCCCN2C1=O (configuration not stated)	> 100 µM	> 100 µM	> 100 µM	–	> 100 µM	> 100 µM	> 100 µM	> 100 µM	> 100 µM	> 100 µM	> 100 µM	–	–	–	–	–	–	–	–	–
N#CSCc1cccc(Nc2cc(=O)[nH]c(=O)[nH]2)c1	> 100 µM	> 100 µM	> 100 µM	> 100 µM	> 100 µM	> 100 µM	> 100 µM	> 100 µM	> 100 µM	–	–	–	–	–	–	–	–	–	–	–
C/C(=N/NC(=S)Nc1cccc(C)c1)c1ccccn1	12.2 µM	2.24 µM	8 µM	2.67 µM	3.55 µM	2.78 µM	6.61 µM	5.45 µM	4.44 µM	–	< 0.158 µM	–	–	–	–	–	–	–	–	–
CC(=O)Nc1ccc(Cl)c(Cl)c1	–	> 100 µM	> 100 µM	–	> 100 µM	> 100 µM	> 100 µM	> 100 µM	> 100 µM	> 100 µM	–	–	–	–	–	–	–	–	–	–
O=C1NC(=S)NC(=O)C1C(c1ccccc1[N+](=O)[O-])C1C(=O)NC(=S)NC1=O	> 100 µM	> 100 µM	> 100 µM	> 100 µM	> 100 µM	–	> 100 µM	> 100 µM	> 100 µM	> 100 µM	> 100 µM	–	–	–	–	–	–	–	–	–
CC(C)/C(Cl)=N\OC(=O)NNc1ccccc1	> 100 µM	> 53.7 µM	38.3 µM	> 100 µM	> 100 µM	> 100 µM	> 74.7 µM	> 44.1 µM	> 100 µM	> 46.7 µM	–	–	–	–	–	–	–	–	–	–
OCc1ccccc1C1CSCSC1	–	> 100 µM	> 100 µM	–	> 100 µM	> 100 µM	> 100 µM	> 100 µM	> 100 µM	> 100 µM	> 100 µM	–	–	–	–	–	–	–	–	–
CCOC(=O)C1CC(O)C(=O)N1C (configuration not stated)	> 100 µM	> 100 µM	–	> 100 µM	> 100 µM	> 100 µM	> 100 µM	–	> 100 µM	> 100 µM	> 100 µM	–	–	–	–	–	–	–	–	–
C[C@]12CC/C(=N\O)C=C1CC[C@@H]1[C@@H]2CC[C@]2(C)C(=N/O)/C(=C/c3cccnc3)C[C@@H]12	54.3 µM	44.5 µM	72.3 µM	75.3 µM	–	> 100 µM	43.5 µM	> 100 µM	57.2 µM	> 100 µM	4.12 µM	–	–	–	–	–	–	–	–	–
Cc1oc2nc(N(C)C)n3nnnc3c2c1C	> 100 µM	> 100 µM	–	> 100 µM	> 100 µM	> 100 µM	> 100 µM	> 100 µM	> 100 µM	> 100 µM	63.6 µM	–	–	–	–	–	–	–	–	–
COc1cc([C@@H]2c3cc4c(cc3C[C@H]3COC(=O)[C@@H]32)OCO4)cc(OC)c1OC	–	> 2.32 µM	> 50 µM	> 50 µM	> 50 µM	> 50 µM	> 10.8 µM	> 50 µM	> 5 µM	21.1 µM	0.00526 µM and 0.0126 µM	0.00386 µM	0.00318 µM and 0.0109 µM	0.00202 µM	0.00681 µM	0.00692 µM	0.00723 µM and 0.0157 µM	0.00431 µM	0.0067 µM	0.00336 µM
